Experimental data: patent publication US4990499A, “Anti-herpes simplex virus activity of 5-alkoxymethyl-2'-deoxycytidimes and their 5-monophosphates” (priority 1989, dated 1991)

Legend:
[1] = molecular target: T1, human DNA polymerase alpha (Homo sapiens, UniProt P09884); assay: In vitro DNA synthesis by human DNA polymerase alpha ([3H]dAMP incorporation); assay type: biochemical; details: for incorporation into DNA / substrate: Human α-DNA polymerase
T1 sequence (P09884 1-1462): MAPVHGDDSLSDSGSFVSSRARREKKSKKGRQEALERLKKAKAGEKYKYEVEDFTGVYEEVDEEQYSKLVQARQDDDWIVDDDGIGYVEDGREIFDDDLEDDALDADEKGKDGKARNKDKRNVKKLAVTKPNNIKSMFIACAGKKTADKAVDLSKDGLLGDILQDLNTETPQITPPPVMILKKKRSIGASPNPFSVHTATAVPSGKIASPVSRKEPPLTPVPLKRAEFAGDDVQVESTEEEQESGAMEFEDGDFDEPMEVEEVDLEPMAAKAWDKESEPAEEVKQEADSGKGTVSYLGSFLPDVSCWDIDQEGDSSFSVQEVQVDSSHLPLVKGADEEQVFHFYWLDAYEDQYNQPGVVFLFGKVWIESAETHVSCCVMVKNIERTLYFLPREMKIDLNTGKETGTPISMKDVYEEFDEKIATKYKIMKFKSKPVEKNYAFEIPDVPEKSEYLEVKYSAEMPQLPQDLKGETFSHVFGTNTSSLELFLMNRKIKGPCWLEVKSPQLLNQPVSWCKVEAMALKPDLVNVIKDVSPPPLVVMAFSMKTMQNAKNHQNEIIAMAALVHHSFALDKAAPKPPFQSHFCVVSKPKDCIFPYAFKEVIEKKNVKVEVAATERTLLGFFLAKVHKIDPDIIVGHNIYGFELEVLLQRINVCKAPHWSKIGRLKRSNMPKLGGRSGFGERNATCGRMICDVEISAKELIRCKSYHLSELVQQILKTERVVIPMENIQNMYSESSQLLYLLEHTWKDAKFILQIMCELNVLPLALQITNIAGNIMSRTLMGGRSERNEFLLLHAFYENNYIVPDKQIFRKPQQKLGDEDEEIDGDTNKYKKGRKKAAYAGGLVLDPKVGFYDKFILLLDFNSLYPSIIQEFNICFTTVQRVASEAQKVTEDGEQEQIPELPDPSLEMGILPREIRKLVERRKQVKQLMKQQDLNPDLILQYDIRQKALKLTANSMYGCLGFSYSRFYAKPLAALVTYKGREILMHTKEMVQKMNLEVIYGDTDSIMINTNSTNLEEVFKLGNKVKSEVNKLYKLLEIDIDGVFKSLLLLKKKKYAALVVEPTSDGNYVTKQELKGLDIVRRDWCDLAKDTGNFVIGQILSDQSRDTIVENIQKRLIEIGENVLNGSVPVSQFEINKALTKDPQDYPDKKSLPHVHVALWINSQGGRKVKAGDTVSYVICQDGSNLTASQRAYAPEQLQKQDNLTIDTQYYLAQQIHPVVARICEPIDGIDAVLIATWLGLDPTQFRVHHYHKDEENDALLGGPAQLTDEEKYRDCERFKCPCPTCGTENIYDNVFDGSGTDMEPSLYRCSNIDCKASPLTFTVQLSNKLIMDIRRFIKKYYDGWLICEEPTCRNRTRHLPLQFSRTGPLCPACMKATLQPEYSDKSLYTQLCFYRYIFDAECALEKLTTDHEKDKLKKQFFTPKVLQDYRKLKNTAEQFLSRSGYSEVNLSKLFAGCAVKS
Procedure: A comparison of in vitro DNA synthesis by viral and cellular DNA polymerases with MMdCTP as an alternative substrate. The results are shown graphically in FIG. 14 and compare HSV-1 DNA polymerase and human DNA polymerase alpha activity.
(§1) The number of pmoles of [^3 H] dAMP incorporated into control samples (`O`MMdCTP) was subtracted from pmoles of test samples. Other nucleotides,dATP, dTTP and dGTP were in excess (10 μm). Each assay was performed in triplicate.
(§2) ^+ unlabeled dNTP concentration (10 μM).
(§3) ^++ 0.2 μM of [^3 H]dATP was used in each assay.

HSV-1 DNA Polymerase [2] = molecular target: T2, HSV-1 DNA Polymerase (Human herpesvirus 1, UniProt P04293); assay: In vitro DNA synthesis by HSV-1 DNA polymerase ([3H]dAMP incorporation); assay type: biochemical, Herpes simplex virus type 1
Procedure: The relative in vitro DNA synthesis by HSV-1 DNA Polymerase using dCTP or MMdCTP as the rate limiting substrate was determined. The synthesis was followed by assaying an incorporation of tritium labelled dAMP.
+ unlabelled dNTP concentration 10 μM
++ Radio labelled [^3 H]dAMP conc 0.2 μM
*One hundred percent activity represents 27355 cpm of [^3 H]dAMP
as §1, §2, §3

HSV-1 DNA Polymerase [3] = molecular target: T2, HSV-1 DNA Polymerase; assay: Kinetic analysis / inhibition of HSV-1 DNA polymerase; assay type: biochemical
Procedure: (§4) The inhibition of HSV-1 and human DNA polymerase alpha by MMdCTP was studied and the results shown graphically in FIG. 16. Assay conditions were specific for each enzyme and each assay was performed in triplicate.

E. coli DNA Polymerase 1 = E. coli DNA Polymerase 1 (Escherichia coli, UniProt P00582); assay: In vitro DNA synthesis by E. coli DNA polymerase 1 ([3H]dAMP incorporation); assay type: biochemical
Procedure: ^a Enzymatic assays were carried out with 1 unit of Sigma E. coli DNA
Polymerase 1. dTTP, dGTP and [^3 H] dATP were non limiting (5 μM).
^b Values obtained are net after subtracting "0" samples which did no
^c Amount of NMeMMdCTP used with each concentration of dCTP was 0.625

[4] = test system: Nc1ccn([C@H]2C[C@H](O)[C@@H](COP(=O)(O)OP(=O)(O)OP(=O)(O)O)O2)c(=O)n1; assay: Kinetic analysis / inhibition of HSV-1 DNA polymerase; assay type: biochemical; details: other: dCTP
Procedure: as §4

[5] = nucleotide 0.039 μM (mixture: dCTP at this concentration + N-MeMMdCTP 0.625 μM)
[6] = nucleotide 0.078 μM (mixture: dCTP at this concentration + N-MeMMdCTP 0.625 μM)
[7] = nucleotide 0.156 μM (mixture: dCTP at this concentration + N-MeMMdCTP 0.625 μM)
[8] = nucleotide 0.312 μM (mixture: dCTP at this concentration + N-MeMMdCTP 0.625 μM)
[9] = nucleotide 0.625 μM (mixture: dCTP at this concentration + N-MeMMdCTP 0.625 μM)
[10] = nucleotide 1.25 μM (mixture: dCTP at this concentration + N-MeMMdCTP 0.625 μM)
[11] = nucleotide 2.50 μM (mixture: dCTP at this concentration + N-MeMMdCTP 0.625 μM)
[12] = nucleotide 5.0 μM (mixture: dCTP at this concentration + N-MeMMdCTP 0.625 μM)

E. coli DNA Polymerase 1, sequence (P00582 whole entry): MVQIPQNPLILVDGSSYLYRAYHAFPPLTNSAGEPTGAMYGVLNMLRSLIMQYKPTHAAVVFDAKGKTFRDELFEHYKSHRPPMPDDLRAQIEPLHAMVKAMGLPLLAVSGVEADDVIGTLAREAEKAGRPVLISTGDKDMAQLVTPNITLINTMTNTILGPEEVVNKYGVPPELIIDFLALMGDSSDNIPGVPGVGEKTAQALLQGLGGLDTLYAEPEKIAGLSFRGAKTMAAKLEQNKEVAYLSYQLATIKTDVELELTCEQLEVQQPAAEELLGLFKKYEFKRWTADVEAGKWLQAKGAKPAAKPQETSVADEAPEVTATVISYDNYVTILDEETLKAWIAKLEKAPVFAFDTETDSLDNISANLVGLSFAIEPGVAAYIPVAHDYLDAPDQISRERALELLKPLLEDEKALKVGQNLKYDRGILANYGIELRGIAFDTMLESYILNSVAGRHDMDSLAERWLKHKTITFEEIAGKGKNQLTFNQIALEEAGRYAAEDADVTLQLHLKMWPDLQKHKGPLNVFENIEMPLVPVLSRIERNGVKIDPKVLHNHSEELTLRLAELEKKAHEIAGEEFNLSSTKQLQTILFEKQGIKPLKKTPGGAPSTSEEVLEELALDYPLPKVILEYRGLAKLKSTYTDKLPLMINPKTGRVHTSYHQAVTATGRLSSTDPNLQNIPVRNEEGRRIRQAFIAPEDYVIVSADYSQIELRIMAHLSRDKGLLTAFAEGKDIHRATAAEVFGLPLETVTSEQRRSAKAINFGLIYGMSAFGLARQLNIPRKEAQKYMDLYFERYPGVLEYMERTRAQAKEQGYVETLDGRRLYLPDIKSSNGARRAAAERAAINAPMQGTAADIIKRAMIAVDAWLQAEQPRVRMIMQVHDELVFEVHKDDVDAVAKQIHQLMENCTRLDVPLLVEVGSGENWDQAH
T2 sequence (P04293 whole entry): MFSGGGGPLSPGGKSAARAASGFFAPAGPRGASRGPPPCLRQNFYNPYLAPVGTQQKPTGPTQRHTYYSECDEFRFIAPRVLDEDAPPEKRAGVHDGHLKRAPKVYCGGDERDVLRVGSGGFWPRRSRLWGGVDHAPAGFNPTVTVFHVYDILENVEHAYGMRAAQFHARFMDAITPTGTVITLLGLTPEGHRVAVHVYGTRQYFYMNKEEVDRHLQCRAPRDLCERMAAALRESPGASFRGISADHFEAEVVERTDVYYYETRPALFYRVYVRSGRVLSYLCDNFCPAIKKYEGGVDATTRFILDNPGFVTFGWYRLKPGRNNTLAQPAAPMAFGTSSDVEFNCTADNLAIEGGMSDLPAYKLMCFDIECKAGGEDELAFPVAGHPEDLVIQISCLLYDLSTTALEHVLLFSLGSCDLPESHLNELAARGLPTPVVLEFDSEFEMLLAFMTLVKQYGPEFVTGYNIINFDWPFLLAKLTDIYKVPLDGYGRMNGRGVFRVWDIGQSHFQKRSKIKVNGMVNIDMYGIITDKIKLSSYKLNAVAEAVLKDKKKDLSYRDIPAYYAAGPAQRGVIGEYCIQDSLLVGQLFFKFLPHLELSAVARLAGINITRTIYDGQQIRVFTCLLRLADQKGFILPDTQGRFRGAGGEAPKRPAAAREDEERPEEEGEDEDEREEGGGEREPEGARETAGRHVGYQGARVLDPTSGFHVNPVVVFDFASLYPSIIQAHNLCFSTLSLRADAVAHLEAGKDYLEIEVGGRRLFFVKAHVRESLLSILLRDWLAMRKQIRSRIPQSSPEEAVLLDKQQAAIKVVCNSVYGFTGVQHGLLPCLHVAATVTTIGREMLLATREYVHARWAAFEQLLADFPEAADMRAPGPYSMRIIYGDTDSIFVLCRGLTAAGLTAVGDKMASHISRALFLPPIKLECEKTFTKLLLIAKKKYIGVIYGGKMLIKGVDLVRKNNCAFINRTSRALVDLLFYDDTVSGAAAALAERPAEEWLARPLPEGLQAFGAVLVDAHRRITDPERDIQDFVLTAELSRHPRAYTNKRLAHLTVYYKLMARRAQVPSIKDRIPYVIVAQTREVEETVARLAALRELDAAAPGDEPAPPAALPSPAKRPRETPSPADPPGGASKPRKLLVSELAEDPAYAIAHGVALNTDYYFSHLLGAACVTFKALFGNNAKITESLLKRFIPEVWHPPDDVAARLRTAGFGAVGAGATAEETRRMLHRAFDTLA

Compound	incorporation into DNA / substrate [1]	incorporation into DNA / substrate (HSV-1 DNA Polymerase [2]; HSV-1 DNA polymerase)	cpm [^3 H]dAMP incorporated (E. coli DNA Polymerase 1; [5])	cpm [^3 H]dAMP incorporated (E. coli DNA Polymerase 1; [6])	cpm [^3 H]dAMP incorporated (E. coli DNA Polymerase 1; [7])	cpm [^3 H]dAMP incorporated (E. coli DNA Polymerase 1; [8])	cpm [^3 H]dAMP incorporated (E. coli DNA Polymerase 1; [9])	cpm [^3 H]dAMP incorporated (E. coli DNA Polymerase 1; [10])	cpm [^3 H]dAMP incorporated (E. coli DNA Polymerase 1; [11])	cpm [^3 H]dAMP incorporated (E. coli DNA Polymerase 1; [12])	other results
COCc1cn([C@H]2C[C@H](O)[C@@H](COP(=O)(O)OP(=O)(O)OP(=O)(O)O)O2)c(=O)nc1N [MMdCTP, 5-methoxymethyl-2'-deoxycytidine triphosphate]											utilization as alternative substrate ([^3 H] dAMP incorporation) ([1]; human DNA polymerase alpha, FIG. 14): little used; utilization as alternative substrate ([^3 H] dAMP incorporation) (HSV-1 DNA Polymerase [2]; HSV-1 DNA polymerase, FIG. 14): readily utilized; preference as substrate versus dCTP (HSV-1 DNA Polymerase [2]; HSV-1 induced DNA polymerase): preferred as a substrate to dCTP; Ki (HSV-1 DNA Polymerase [3]): 380 nM; inhibition of HSV-1 versus human DNA polymerase alpha (HSV-1 DNA Polymerase [3]; FIG. 16, HSV-1 compared with human DNA polymerase alpha): clear difference in effect; Km/Ki (HSV-1 DNA Polymerase [3]; Km of dCTP / Ki of MMdCTP): 0.4
CNc1nc(=O)n([C@H]2C[C@H](O)[C@@H](COP(=O)(O)OP(=O)(O)OP(=O)(O)O)O2)cc1COC [N-MeMMdCTP]	not incorporated into DNA	not incorporated into DNA	-18 cpm	-7 cpm	3 cpm	-9 cpm	3 cpm	-20 cpm	-17 cpm	-16 cpm	interference with incorporation of dCTP into DNA (E. coli DNA Polymerase 1; E. coli DNA polymerase): did not interfere with incorporation of dCTP into DNA; substrate for DNA polymerase (E. coli DNA Polymerase 1; E. coli DNA polymerase): did not serve as a substrate
Nc1ccn([C@H]2C[C@H](O)[C@@H](COP(=O)(O)OP(=O)(O)OP(=O)(O)O)O2)c(=O)n1 [dCTP, 2'-deoxycytidine triphosphate, reference compound]	excellent substrate for DNA synthesis	excellent substrate for DNA synthesis	35 cpm	118 cpm	216 cpm	527 cpm	1171 cpm	1603 cpm	1554 cpm	2032 cpm	[^3 H]dAMP incorporation representing 100% activity ([1]; 10 μM dCTP, Human DNA polymerase): 4059 cpm; [^3 H]dAMP incorporation representing 100% activity (HSV-1 DNA Polymerase [2]; 10 μM dCTP, HSV-1 DNA polymerase): 27355 cpm
HSV-1 DNA Polymerase (Human alphaherpesvirus 1 strain 17)											Km [4]: 0.15 µM
